Data reported in PMC6522510 (Nature Communications, 2019).
Structures can show the parent of a compound that is named as a salt.

What was measured:
Parameters in all cases: species or system AML cell lines (8); Primary HTS, single concentration about 10 uM, Cell Titer Glo viability; log10 luminescence, per cent inhibition relative to cycloheximide control
Conditions in all cases: 72 h, relative to cycloheximide control, log10 luminescence; inhibitor
[1] = test system: CHRF288-11
[2] = test system: CMK
[3] = test system: CMS
[4] = test system: M07e
[5] = test system: ML-2
[6] = test system: MOLM-13
[7] = test system: MV4-11
[8] = test system: U937

O=C1NC(=Nc2ccccc2)S/C1=C\c1ccc2ncccc2c1 [SJ000580960-1]
CHRF288-11 %inh [1]: -1.26% | CMK %inh [2]: 5.474% | CMS %inh [3]: -0.1285% | M07e %inh [4]: -2.396% | ML-2 %inh [5]: 0.4587% | MOLM-13 %inh [6]: 1.819% | MV4-11 %inh [7]: 2.663% | U937 %inh [8]: 2.19%

CN(C)CCOc1ccc(-c2cc(-c3ccc4c(c3)CCC4=NO)c(-c3ccncc3)o2)cc1 [SJ000573227-1, JS84326-047A1]
CHRF288-11 %inh [1]: 127% | CMK %inh [2]: 15.46% | CMS %inh [3]: 6.225% | M07e %inh [4]: 14.13% | ML-2 %inh [5]: 66.89% | MOLM-13 %inh [6]: 21.06% | MV4-11 %inh [7]: 2.356% | U937 %inh [8]: 9.989%

CC(=O)CCCCn1c(=O)c2c(ncn2C)n(C)c1=O [SJ000285992-7, PENTOXIFYLLINE]
CHRF288-11 %inh [1]: -2.356% | CMK %inh [2]: 2.352% | CMS %inh [3]: -0.2539% | M07e %inh [4]: -1.002% | ML-2 %inh [5]: -1.777% | MOLM-13 %inh [6]: 0.7772% | MV4-11 %inh [7]: 4.085% | U937 %inh [8]: -1.659%

CC1(C)O[C@@H]2C[C@H]3[C@@H]4CCC5=CC(=O)C=C[C@]5(C)[C@H]4[C@@H](O)C[C@]3(C)[C@]2(C(=O)CO)O1 [SJ000565170-1, DESONIDE]
CHRF288-11 %inh [1]: 6.238% | CMK %inh [2]: 3.484% | CMS %inh [3]: 1.425% | M07e %inh [4]: 8.441% | ML-2 %inh [5]: -0.7887% | MOLM-13 %inh [6]: 5.492% | MV4-11 %inh [7]: 0.7481% | U937 %inh [8]: 6.18%

CC(C)(Oc1ccc(Cl)cc1)C(=O)O [SJ000285361-4, CLOFIBRIC ACID]
CHRF288-11 %inh [1]: 12.15% | CMK %inh [2]: -0.9561% | CMS %inh [3]: 10.42% | M07e %inh [4]: 1.241% | ML-2 %inh [5]: 4.873% | MOLM-13 %inh [6]: 6.685% | MV4-11 %inh [7]: 17.98% | U937 %inh [8]: 12.99%

C#C[C@]1(O)CC[C@H]2[C@@H]3CCC4=Cc5oncc5C[C@]4(C)[C@H]3CC[C@@]21C [SJ000285723-7, DANAZOL]
CHRF288-11 %inh [1]: 3.76% | CMK %inh [2]: -0.5732% | CMS %inh [3]: -0.3914% | M07e %inh [4]: 0.05908% | ML-2 %inh [5]: 0.4162% | MOLM-13 %inh [6]: 13.86% | MV4-11 %inh [7]: 3.859% | U937 %inh [8]: 4.655%

COc1cccc2c1c(C1=C(c3cn(C)c4ccccc34)C(=O)NC1=O)cn2C [SJ000581070-1]
CHRF288-11 %inh [1]: 8.87% | CMK %inh [2]: 10.2% | CMS %inh [3]: -1.314% | M07e %inh [4]: 5.504% | ML-2 %inh [5]: -0.1682% | MOLM-13 %inh [6]: 2.978% | MV4-11 %inh [7]: 0.2803% | U937 %inh [8]: -0.4175%

Nc1c(C(=O)c2cccc(-c3ccncc3)c2)cnn1-c1ccc(F)cc1 [SJ000581172-1]
CHRF288-11 %inh [1]: -2.059% | CMK %inh [2]: 6.56% | CMS %inh [3]: 2.678% | M07e %inh [4]: 6.562% | ML-2 %inh [5]: 3.419% | MOLM-13 %inh [6]: 5.84% | MV4-11 %inh [7]: 2.351% | U937 %inh [8]: 13.25%

COc1cc2c(cc1Nc1nc(Nc3cccc(F)c3C(N)=O)c3cc[nH]c3n1)N(C(=O)CN1CCN(C(C)C)CC1)CC2 [SJ000573284-1, U23773/22/1]
CHRF288-11 %inh [1]: 156% | CMK %inh [2]: 28.42% | CMS %inh [3]: 4.776% | M07e %inh [4]: -2.07% | ML-2 %inh [5]: 60.74% | MOLM-13 %inh [6]: 110% | MV4-11 %inh [7]: -1.565% | U937 %inh [8]: -4.151%

CCS(=O)(=O)c1ccc(OC)c(Nc2ncc(-c3cccc(F)c3)o2)c1 [SJ000573008-1, U15747/41/2]
CHRF288-11 %inh [1]: -0.1874% | CMK %inh [2]: 0.9043% | CMS %inh [3]: 0.7614% | M07e %inh [4]: 1.435% | ML-2 %inh [5]: 0.9608% | MOLM-13 %inh [6]: 34.16% | MV4-11 %inh [7]: 41.43% | U937 %inh [8]: 1.214%

CCc1cccc(NC(=O)Nc2ccc(Oc3ccc4nc(NC(=O)OC)[nH]c4c3)cc2)c1 [SJ000573193-1, T229/79/1]
CHRF288-11 %inh [1]: -2.602% | CMK %inh [2]: 50% | CMS %inh [3]: -0.1127% | M07e %inh [4]: 0.5293% | ML-2 %inh [5]: 5.896% | MOLM-13 %inh [6]: 61.84% | MV4-11 %inh [7]: 84.23% | U937 %inh [8]: 3.761%

CC(C)[C@@H]1C(=O)N(S(C)(=O)=O)[C@@H]2CCN(C(=O)/C=C/CN3CCCCC3)[C@H]21 [SJ000772418-1, GW 311616 HYDROCHLORIDE]
CHRF288-11 %inh [1]: 12.76% | CMK %inh [2]: -2.728% | CMS %inh [3]: 4.399% | M07e %inh [4]: 1.212% | ML-2 %inh [5]: 0.5681% | MOLM-13 %inh [6]: -2.354% | MV4-11 %inh [7]: 3.043% | U937 %inh [8]: -1.402%

O=C1NC(=NCCc2cccc(F)c2)S/C1=C\c1ccc2ncccc2c1 [SJ000581129-1]
CHRF288-11 %inh [1]: 23.25% | CMK %inh [2]: 94.55% | CMS %inh [3]: 28.27% | M07e %inh [4]: 27.94% | ML-2 %inh [5]: 47.36% | MOLM-13 %inh [6]: 21.32% | MV4-11 %inh [7]: 43.95% | U937 %inh [8]: 84.57%

CCN(CC)C(=O)N1CCN(C)CC1 [SJ000285736-4, DIETHYLCARBAMAZINE CITRATE]
CHRF288-11 %inh [1]: -2.146% | CMK %inh [2]: 2.446% | CMS %inh [3]: -4.008% | M07e %inh [4]: -3.005% | ML-2 %inh [5]: -1.11% | MOLM-13 %inh [6]: 1.95% | MV4-11 %inh [7]: 2.119% | U937 %inh [8]: 2.79%

CN(C)CCOc1ccc(-c2nc(-c3ccncc3)c(-c3ccc4c(c3)CC/C4=N\O)[nH]2)cc1 [SJ000573289-1, MM206071-092A1 | SB590885]
CHRF288-11 %inh [1]: 9.844% | CMK %inh [2]: -1.288% | CMS %inh [3]: 1.753% | M07e %inh [4]: 3.647% | ML-2 %inh [5]: -1.225% | MOLM-13 %inh [6]: 11.69% | MV4-11 %inh [7]: 2.418% | U937 %inh [8]: 1.485%

O=C(O[C@H]1CN[C@H](C#Cc2cc3ncnc(Nc4ccc(Cc5ccccc5)cc4)c3s2)C1)N1CCOCC1 [SJ000573334-1, U20046/184/1]
CHRF288-11 %inh [1]: 4.257% | CMK %inh [2]: 86.74% | CMS %inh [3]: 1.486% | M07e %inh [4]: 4.781% | ML-2 %inh [5]: 11.25% | MOLM-13 %inh [6]: 61.51% | MV4-11 %inh [7]: 4.189% | U937 %inh [8]: 2.636%

Cc1ccc(/C=C2\CNC/C(=C\c3ccc(C)cc3)C2=O)cc1 [SJ000772404-1, NSC 632839 HYDROCHLORIDE]
CHRF288-11 %inh [1]: 82.45% | CMK %inh [2]: 116.6% | CMS %inh [3]: 103.5% | M07e %inh [4]: 129.2% | ML-2 %inh [5]: 61.57% | MOLM-13 %inh [6]: 99.63% | MV4-11 %inh [7]: 77.36% | U937 %inh [8]: 84.59%

Nc1c(C(=O)c2ccc(CCCN3CCOCC3)cc2)cnn1-c1ccc(F)cc1 [SJ000581018-1]
CHRF288-11 %inh [1]: 6.032% | CMK %inh [2]: 0.7543% | CMS %inh [3]: 2.2% | M07e %inh [4]: 0.8427% | ML-2 %inh [5]: 1.663% | MOLM-13 %inh [6]: 3.662% | MV4-11 %inh [7]: 0.41% | U937 %inh [8]: 1.825%
